Test system: not listed separately
Assay: Effect on insulin release in mouse BetaTC6 cells assessed as ratio of insulin release incubated for 2 hrs in presence of low glucose media by ELISA relative to DMSO
Format: cell-based
Conditions: beta-tc6, 2 h

| SMILES | Activity |
| --- | --- |
| Cn1cc(-c2ccc3ncc(-c4cccs4)n3n2)cn1 | Non-toxic |

Test system: C2C12
Assay: Cytotoxic activity against mouse C2C12 cells assessed as inhibition of cell proliferation of at 2 to 10 uM incubated for 72 hrs by MTT assay
Format: cell-based
Conditions: c2c12, 72 h

| SMILES | Activity |
| --- | --- |
| COc1cc(-c2ccc3ncc(-c4cccc(C(=O)NCCN(C)C)c4)n3n2)ccc1O | Toxic |
| NC(=O)c1ccc(-c2cnc3ccc(Cc4ccccc4)nn23)cc1 | Toxic |
| NC(=O)c1ccc(-c2cnc3ccc(Cc4ccc(F)cc4)nn23)cc1 | Toxic |
| Cn1cc(-c2ccc3ncc(-c4cccs4)n3n2)cn1 | Toxic |

Test system: Beta-TC6
Assay: Increase in insulin release in mouse BetaTC6 cells assessed as relative insulin release activity at 10 uM incubated for 2 to 4 hrs by FRET based HTRF assay relative to sunitinib
Format: functional
Conditions: not given

| SMILES | Activity |
| --- | --- |
| COc1cc(-c2ccc3ncc(-c4cccc(C(=O)NCCN(C)C)c4)n3n2)ccc1O | 10% |
| NC(=O)c1ccc(-c2cnc3ccc(Cc4ccccc4)nn23)cc1 | 20% |
| CCOc1cccc(-c2cn3c(-c4ccc5c(c4)OCO5)cnc3cn2)c1 | 50% |
| COc1ccc(CNc2ccc3ncc(-c4ccc(O)cc4)n3n2)cc1 | 20% |
| Clc1cccc(-c2nnc3ccc(-c4cncnc4)cn23)c1 | 20% |
| Fc1cccc(-c2cnc3cnc(-c4ccc5c(c4)OCO5)cn23)c1 | 20% |
| O=C(NCCO)c1cccc(-c2cn3c(-c4cccs4)cnc3cn2)c1 | 20% |
| COc1cccc(-c2ccc3nnc(-c4cscn4)n3c2)c1 | 50% |
| CN(C)CCNC(=O)c1ccc(-c2cn3c(-c4ccc(N(C)C)cc4)cnc3cn2)cc1 | 50% |
| CC(=O)c1cccc(-c2cnc3cnc(-c4cccc(F)c4)cn23)c1 | 20% |
| CN1CCN(c2ccc(-c3cn4c(-c5cccc(O)c5)cnc4cn3)cc2)CC1 | 20% |
| COc1cc(-c2cnc3cnc(-c4ccc(NCCN5CCOCC5)nc4)cn23)ccc1O | 20% |
| NC(=O)c1ccc(-c2cnc3ccc(Cc4ccc(F)cc4)nn23)cc1 | 20% |
| Oc1cccc(-c2cnc3cnc(-c4cc5ccccc5s4)cn23)c1 | 50% |
| CN(C)CCCOc1ccc(-c2nnc3ccc(C#Cc4ccc(C(=O)N(C)C)cc4)cn23)cc1 | 20% |
| COc1ccc(CNc2ccc3ncc(-c4ccc5[nH]ccc5c4)n3n2)cc1 | 20% |
| O=C(NCCO)c1ccc(-c2cn3c(-c4ccsc4)cnc3cn2)cc1 | 10% |
| C(=C\c1cn2c(-c3cccs3)cnc2cn1)/c1ccccc1 | 20% |
| c1coc(-c2cn3c(-c4ccsc4)cnc3cn2)c1 | 20% |
| COc1ccc(-c2cnc3ccc(NCCCO)nn23)cc1 | 10% |
| Fc1ccc(-c2cnc3cnc(-c4ccco4)cn23)cc1Cl | 20% |
| COc1cc(CNc2ccc3ncc(-c4ccc(N(C)C)cc4)n3n2)cc(OC)c1OC | 10% |
| CN(C)CCCOc1ccc(-c2cn3c(-c4cccc(N(C)C)c4)cnc3cn2)cn1 | 20% |
| Clc1ccc(-c2cnc3cnc(-c4ccncc4)cn23)cc1 | 20% |
| N#Cc1ccc(-c2cnc3cnc(-c4ccc(CO)cc4)cn23)cc1 | 20% |
| Oc1cccc(-c2nnc3ccc(-c4ccc(F)cc4)cn23)c1 | 50% |
| FC(F)(F)c1cccc(C#Cc2ccc3nnc(-c4ccncc4)n3c2)c1 | 10% |

| SMILES | Activity |
| --- | --- |
| OC1CCC(Nc2ccc3ncc(Br)n3n2)CC1 (stereo not given) | 10% |
| CN1CCN(c2ccc(-c3cnc4cccnn34)cn2)CC1 | 10% |
| c1ccc(-c2nnc3ccc(-c4ccc5c(c4)OCO5)cn23)cc1 | 50% |
| CC(=O)c1cccc(-c2cnc3ccc(-c4ccc(N)nc4)nn23)c1 | 20% |
| CN(C)c1ccc(-c2cnc3cnc(-c4cccc(C(=O)NCCO)c4)cn23)cc1 | 20% |
| Nc1cccc(-c2ccc3ncc(-c4cccc(Cl)c4)n3n2)c1 | 20% |
| OCc1ccc(-c2cnc3cnc(-c4ccc(Cl)cc4Cl)cn23)cc1 | 20% |
| COc1cc(-c2cnc3cnc(-c4cnn(C)c4)cn23)ccc1O | 50% |
| COc1ccc(-c2ccc3nnc(-c4ccccc4)n3c2)c(C)c1 | >=100% |
| CC(C(=O)Nc1cnc2cnc(-c3ccc4c(c3)OCO4)cn12)c1ccccc1 (stereo not given) | 20% |
| Fc1cccc(-c2cnc3cnc(-c4ccc(Cl)cc4)cn23)c1 | 20% |
| COc1ccc(-c2nnc3ccc(C#Cc4ccncc4)cn23)cc1OC | 50% |
| CN1CCN(C(=O)c2ccc(-c3cnc4cnc(/C=C/c5ccccc5)cn34)cc2)CC1 | 10% |
| COc1ccc(-c2cnc3cnc(-c4cccs4)cn23)cc1 | 20% |
| Cc1ccc(CNc2ccc3ncc(-c4ccc(C(=O)NCCN(C)C)cc4)n3n2)c(C)c1 | 20% |
| COc1ccc(-c2ccc3nnc(-c4ccncc4)n3c2)cc1OC | 20% |
| Nc1cccc(-c2ccc3nnc(-c4cccc(Cl)c4)n3c2)c1 | 50% |
| Fc1cccc(-c2cnc3cnc(-c4cccs4)cn23)c1 | 20% |
| CC(C)Oc1cccc(-c2cn3c(-c4cccs4)cnc3cn2)c1 | 20% |
| O=C(Nc1cnc2cnc(-c3ccsc3)cn12)c1cccs1 | 20% |
| Cn1cc(-c2ccc3ncc(-c4cccs4)n3n2)cn1 | 20% |
| c1ccc(-c2cnc3cnc(-c4ccsc4)cn23)cc1 | 20% |
| COc1ccc(-c2ccc3nnc(-c4ccc(OCCCN(C)C)cc4)n3c2)cc1OC | 50% |
| c1cnc2cc(-c3nnc4ccc(-c5ccoc5)cn34)ccc2n1 | 50% |
| OCC#Cc1ccc2nnc(-c3ccc4c(c3)OCO4)n2c1 | 20% |
| Clc1ccccc1-c1ccc2nnc(-c3cscn3)n2c1 | 50% |
| CC(C)[C@@H](CO)Nc1ccc2ncc(-c3ccc(N)cc3)n2n1 | 50% |

| SMILES | Activity |
| --- | --- |
| CC(C)N1CCN(c2ccc(-c3cn4c(-c5ccc(O)cc5)cnc4cn3)cc2)CC1 | 20% |
| COc1ccc(-c2cnc3ccc(N[C@H](CO)C(C)C)nn23)c(OC)c1 | 20% |
| Cc1ccccc1-c1cn2c(-c3ccc4c(c3)OCO4)cnc2cn1 | 20% |
| COc1ccc(-c2ccc3nnc(-c4ccc(O)c(OC)c4)n3c2)cn1 | 50% |
| Cn1cncc1C#Cc1ccc2nnc(-c3ccc4c(c3)OCO4)n2c1 | 20% |
| COc1cc(-c2cn3c(-c4ccccc4Cl)cnc3cn2)ccc1O | 20% |
| c1csc(-c2cn3c(-c4ccncc4)cnc3cn2)c1 | 20% |
| c1cc(-c2cn3c(-c4ccc5c(c4)OCO5)cnc3cn2)cs1 | 50% |
| CN(C)/C(=C1\N=C(c2ccccc2)OC1=O)c1cnc2cccnn12 | 10% |
| OCc1ccc(-c2cn3c(-c4cccc(F)c4)cnc3cn2)cc1 | 20% |
| FC(F)(F)Oc1ccc(-c2cn3c(-c4cccs4)cnc3cn2)cc1 | 20% |
| Cn1cc(-c2cnc3cnc(-c4ccncc4)cn23)cn1 | 20% |
| Cc1ccc(CNc2ccc3ncc(-c4ccc(O)cc4)n3n2)c(C)c1 | 20% |
| CN(C)c1cccc(-c2cn3c(NC(=O)c4ccccc4)cnc3cn2)c1 | 50% |
| CS(=O)(=O)Nc1cccc(-c2cn3c(-c4ccc5ncccc5c4)cnc3cn2)c1 | 20% |
| COc1ccccc1-c1cn2c(NC(=O)c3ccccc3)cnc2cn1 | 20% |
| COc1ccc(-c2cnc3cnc(-c4ccc(N5CCN(C)CC5)cc4)cn23)cn1 | 20% |
| CC(C)N1CCN(c2ccc(-c3cn4c(-c5ccc(C(=O)NC6CC6)cc5)cnc4cn3)cc2)CC1 | 20% |
| O=C(NCCO)c1ccc(-c2cn3c(-c4cccs4)cnc3cn2)cc1 | 10% |
| CN(C)c1ccc(-c2cnc3cnc(-c4ccc(CO)cc4)cn23)cc1 | 50% |
| CN1CCN(C(=O)c2cccc(-c3cnc4cnc(-c5cccc(Cl)c5)cn34)c2)CC1 | 20% |
| COc1ccc(-c2ccc3nnc(-c4ccccc4C)n3c2)cc1OC | 50% |
| Cn1cc(-c2cnc3cnc(-c4cc5ccccc5s4)cn23)cn1 | 20% |
| c1cnn2c(-c3ccc4c(c3)CCO4)cnc2c1 | 10% |
| COc1ccc(-c2nnc3ccc(-c4cccc(N(C)C)c4)cn23)cc1OC | 50% |
| CSc1ccc(-c2cn3c(-c4cccnc4)cnc3cn2)cc1 | 20% |
| O=C(Cc1ccsc1)Nc1cnc2cnc(-c3ccccc3F)cn12 | 10% |

| SMILES | Activity |
| --- | --- |
| COc1cc(OC)cc(-c2cnc3cnc(-c4ccccc4N(C)C)cn23)c1 | 20% |
| COc1cc(-c2cnc3cnc(-c4ccc(OCCCN(C)C)nc4)cn23)ccc1O | 20% |
| CN(C)c1cccc(-c2cnc3cnc(-c4ccc(CO)cc4)cn23)c1 | 20% |
| COc1cc(-c2cn3c(-c4ccc5ncccc5c4)cnc3cn2)cc(OC)c1OC | 20% |
| COc1ccc(-c2cn3c(-c4ccc(OC)nc4)cnc3cn2)cn1 | 20% |
| CN(C)c1cccc(-c2cnc3cnc(-c4ccsc4)cn23)c1 | 50% |
| CCOc1cccc(-c2cn3c(-c4ccc(CCC(=O)O)cc4)cnc3cn2)c1 | >=100% |
| CNc1ccc2ncc(-c3cccc(C(=O)N(C)C)c3)n2n1 | 20% |
| CC(C(=O)Nc1cnc2cnc(-c3cccc([N+](=O)[O-])c3)cn12)c1ccccc1 (stereo not given) | 20% |
| CN(C)C(=O)c1ccc(-c2cnc3cnc(-c4ccccc4Oc4ccccc4)cn23)cc1 | 20% |
| c1cncc(-c2cnc3ccc(-c4ccoc4)nn23)c1 | 20% |
| Nc1ccc(-c2cn3c(NC(=O)c4ccccc4)cnc3cn2)cc1 | 20% |
| CCCNc1ccc2ncc(-c3cccc(/C=C/C(=O)O)c3)n2n1 | 10% |
| CCCC/C=C/c1cn2c(NC(=O)Cc3cccc(OC)c3)cnc2cn1 | 10% |
| CC(=O)c1ccc(-c2cn3c(-c4ccc(C(=O)NC5CC5)cc4)cnc3cn2)s1 | 20% |
| COc1cc(-c2nnc3ccc(-c4cccc(F)c4)cn23)ccc1O | 50% |
| CCOc1ccc(-c2cnc3cccnn23)cc1 | 10% |
| CC(=O)Nc1ccc(-c2cnc3ccc(-c4ccc(N5CCOCC5)cc4)nn23)cc1 | >=100% |
| COc1ccc(-c2cn3c(-c4ccc(N(C)C)cc4)cnc3cn2)cn1 | 50% |
| CN(C)c1ccc(-c2cnc3cnc(-c4ccc(NCCN5CCOCC5)nc4)cn23)cc1 | 50% |
| COc1ccc(-c2nnc3ccc(-c4cccc(F)c4)cn23)cc1OC | >=100% |
| Oc1cccc(-c2cnc3cnc(-c4cccs4)cn23)c1 | 20% |
| Oc1cccc(-c2cnc3ccc(-c4cccc5ncccc45)nn23)c1 | 10% |
| CS(=O)(=O)Nc1ccc(-c2cnc3cccnn23)cc1 | 10% |
